Source: US20130171098A1, “Cyclopropyl Fused Indolobenzazepine HCV NS5B Inhibitors” (priority 2006, published 2013)
Read-outs that look alike come from different tables or passages of the source.

Assays:
[1] = target: T1, HCV NS5B RdRp genotype 1b (Hepatitis C virus genotype 1b, UniProt Q9WMX2); experiment: HCV NS5B RdRp enzyme assay (standard / modified); assay type: biochemical
T1 construct: The protein was expressed with an 18 amino acid C-terminal truncation to enhance the solubility; made in house; host or cells: E. coli BL21(DE3), pET21a vector
T1 sequence (Q9WMX2 2420-2992): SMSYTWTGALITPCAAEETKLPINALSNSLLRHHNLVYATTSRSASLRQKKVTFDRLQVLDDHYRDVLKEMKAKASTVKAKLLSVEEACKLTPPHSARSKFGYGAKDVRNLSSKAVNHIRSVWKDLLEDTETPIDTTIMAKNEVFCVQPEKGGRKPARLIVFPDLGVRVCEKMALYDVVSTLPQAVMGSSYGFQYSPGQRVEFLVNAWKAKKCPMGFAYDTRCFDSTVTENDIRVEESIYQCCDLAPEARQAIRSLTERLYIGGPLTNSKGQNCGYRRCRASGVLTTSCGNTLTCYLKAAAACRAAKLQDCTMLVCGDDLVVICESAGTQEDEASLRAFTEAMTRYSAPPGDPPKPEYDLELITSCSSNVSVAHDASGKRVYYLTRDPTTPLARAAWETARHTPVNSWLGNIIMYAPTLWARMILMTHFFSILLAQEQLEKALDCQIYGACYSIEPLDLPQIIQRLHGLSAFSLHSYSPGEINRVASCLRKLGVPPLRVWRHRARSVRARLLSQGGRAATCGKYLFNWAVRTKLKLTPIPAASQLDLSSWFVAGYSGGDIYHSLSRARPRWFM
Experimental: HCV NS5B RdRp Cloning, Expression, and Purification.
The cDNA encoding the NS5B protein of HCV, genotype 1b, was cloned into the pET21a expression vector. The protein was expressed with an 18 amino acid C-terminal truncation to enhance the solubility. The E. coli competent cell line BL21(DE3) was used for expression of the protein. Cultures were grown at 37° C. for ˜4 hours until the cultures reached an optical density of 2.0 at 600 nm. The cultures were cooled to 20° C. and induced with 1 mM IPTG. Fresh ampicillin was added to a final concentration of 50 μg/ml and the cells were grown overnight at 20° C.
The lysis buffer consisted of 20 mM Tris-HCl, pH 7.4, 500 mM NaCl, 0.5% triton X-100, 1 mM DTT, 1 mM EDTA, 20% glycerol, 0.5 mg/ml lysozyme, 10 mM MgCl2, 15 ug/ml deoxyribonuclease I, and Complete TM protease inhibitor tablets (Roche). After addition of the lysis buffer, frozen cell pellets were resuspended using a tissue homogenizer. To reduce the viscosity of the sample, aliquots of the lysate were sonicated on ice using a microtip attached to a Branson sonicator. The sonicated lysate was centrifuged at 100,000×g for 1 hr at 4° C. and filtered through a 0.2 μm filter unit (Corning).
The protein was purified using two sequential chromatography steps: Heparin sepharose CL-6B and polyU sepharose 4B (Pharmacia). The chromatography buffers were identical to the lysis buffer but contained no lysozyme, deoxyribonuclease I, MgCl2 or protease inhibitor and the NaCl concentration of the buffer was adjusted according to the requirements for charging the protein onto the column. Each column was eluted with a NaCl gradient which varied in length from 5-50 column volumes depending on the column type. […] The enzyme was aliquoted and stored at −80° C.
Standard HCV NS5B RdRp Enzyme Assay.
HCV RdRp genotype 1b assays were run in a final volume of 60 μl in 96 well plates (Corning 3600). The assay buffer is composed of 20 mM Hepes, pH 7.5, 2.5 mM KCl, 2.5 mM MgCl2, 1 mM DTT, 1.6 U RNAse inhibitor (Promega N2515), 0.01 mg/ml BSA (Sigma B6917), and 2% glycerol. All compounds were serially diluted (3-fold) in DMSO and diluted further in water such that the final concentration of DMSO in the assay was 2%. HCV RdRp genotype 1b enzyme was used at a final concentration of 28 nM. A polyA template was used at 6 nM, and a biotinylated oligo-dT12 primer was used at 180 nM final concentration. Template was obtained commercially (Amersham 27-4110). Biotinylated primer was prepared by Sigma Genosys. 3H-UTP was used at 0.6 μCi (0.29 μM total UTP). Reactions were initiated by the addition of enzyme, incubated at 30° C. for 60 min, and stopped by adding 25 μl of 50 mM EDTA containing SPA beads (4 μg/μl, Amersham RPNQ 0007). Plates were read on a Packard Top Count NXT after >1 hr incubation at room temperature.
Modified HCV NS5B RdRp Enzyme Assay.
A modified enzyme assay was performed essentially as described for the standard enzyme assay except for the following: The biotinylated oligo dT12 primer was precaptured on streptavidin-coated SPA beads by mixing primer and beads in assay buffer and incubating at room temperature for one hour. Unbound primer was removed after centrifugation. The primer-bound beads were resuspended in 20 mM Hepes buffer, pH 7.5 and used in the assay at final concentrations of 20 nM primer and 0.67 μg/μl beads. Order of addition in the assay: enzyme (1.75 nM) was added to diluted compound followed by the addition of a mixture of template (0.36 nM), 3H-UTP (0.6 μCi, 0.29 μM), and primer-bound beads, to initiate the reaction; concentrations given are final. Reactions were allowed to proceed for 4 hours at 30° C.
IC50 values for compounds were determined using seven different [I].

HCV replicon cells = experiment: HCV replicon FRET / luciferase assay; assay type: cell-based, Hepatitis C virus
Experimental: The HCV FRET screening assay was performed in 96-well cell culture plates. The FRET peptide (Anaspec, Inc.) (Taliani et al., Anal. Biochem. 1996, 240, 60-67) contains a fluorescence donor, EDANS, near one end of the peptide and an acceptor, DABCYL, near the other end. The fluorescence of the peptide is quenched by […] resonance energy transfer (RET) between the donor and the acceptor, but as the NS3 protease cleaves the peptide the products are released from RET quenching and the fluorescence of the donor becomes apparent. The assay reagent was made as follows: 5× cell Luciferase cell culture lysis reagent from Promega (#E153A) diluted to 1× with dH2O, NaCl added to 150 mM final, the FRET peptide diluted to 20 μM final from a 2 mM stock.
To prepare plates, HCV replicon cells, with or without a Renilla luciferase reporter gene, were trypsinized and plated in a 96-well plate with titrated test compounds added in columns 3 through 12; columns 1 and 2 contained a control compound (HCV control inhibitor), and the bottom row contained cells with DMSO only. The plates were then placed in a CO2 incubator at 37° C.
Subsequent to addition of the test compounds described above (FRET Assay Preparation), at various times the plate was removed and Alamar blue solution (Trek Diagnostics, #00-100) was added to measure cellular toxicity. After reading in a Cytoflour 4000 instrument (PE Biosystems), plates were rinsed with PBS and then used for FRET assay by the addition of 30 ul of the FRET peptide assay reagent described above (FRET Assay Preparation) per well. The plate was then placed into the Cytoflour 4000 instrument which had been set to 340 excite/490 emission, automatic mode for up to 20 cycles and the plate read in a kinetic mode. Typically, the signal to noise using an endpoint analysis after the reads was at least three-fold. Alternatively, after Alamar blue reading, plates were rinsed with PBS, then used for luciferase assay using the Promega Dual-Glo Luciferase Assay System or the Promega EnduRen Live Cell Substrate assay.
Compound analysis was performed by quantification of the relative HCV replicon inhibition and the relative cytotoxicity values. To calculate cytoxicity values, the average Alamar Blue fluorescence signals from the control wells were set as 100% non-toxic. The individual signals in each of the compound test wells were then divided by the average control signal and multiplied by 100% to determine […]. To calculate the HCV replicon inhibition values, an average background value was obtained from the two wells containing the highest amount of HCV control inhibitor at the end of the assay period. These numbers were similar to those obtained from naïve Huh-7 cells. The background numbers were then subtracted from the average signal obtained from the control wells and this number was used as 100% activity. The individual signals in each of the compound test wells were then divided by the averaged control values after background subtraction and multiplied by 100% to determine percent activity. […] The two numbers generated for the compound plate, percent cytoxicity and percent activity, were used to determine compounds of interest for further analysis.

[2] = HCV NS5B RdRp genotype 1b enzyme, read-out: IC50
[3] = Hepatitis C virus, HCV replicon cells, FRET or luciferase activity, read-out: EC50

SMILES | IC50 [1] | EC50 (HCV replicon cells; Hepatitis C virus) | further results
COc1ccc2c(c1)C1CC1(C(=O)N1CC3CCC(C1)N3C(=O)OC(C)(C)C)Cn1c-2c(C2CCCCC2)c2ccc(C(=O)NS(=O)(=O)N(C)C)cc21 (stereo not drawn) | < 20 nM | 1 to 500 nM | –
COc1ccc2c(c1)C1CC1(C(=O)N1CC3CCC(C1)N3)Cn1c-2c(C2CCCCC2)c2ccc(C(=O)NS(=O)(=O)N(C)C)cc21 (stereo not drawn) | 1 to 500 nM | 1 to 500 nM | –
COc1ccc2c(c1)C1CC1(C(=O)N1CC3CCC(C1)N3C(C)C)Cn1c-2c(C2CCCCC2)c2ccc(C(=O)NS(=O)(=O)N(C)C)cc21 (stereo not drawn) | < 20 nM | 1 to 500 nM | –
COc1ccc2c(c1)C1CC1(C(=O)N1C3CCC1CN(C)C3)Cn1c-2c(C2CCCCC2)c2ccc(C(=O)NS(=O)(=O)C3CC3)cc21 (stereo not drawn) | 1 to 500 nM | 1 to 500 nM | –
COc1ccc2c(c1)[C@@H]1C[C@]1(C(=O)N1C3CCC1CN(C)C3)Cn1c-2c(C2CCCCC2)c2ccc(C(=O)NS(=O)(=O)N(C)C)cc21 | – | – | IC50 [1, 2]: 1 to 500 nM; EC50 (HCV replicon cells; [3]): 1 to 500 nM
COc1ccc2c(c1)[C@H]1C[C@@]1(C(=O)N1[C@@H]3CC[C@H]1CN(C)C3)Cn1c-2c(C2CCCCC2)c2ccc(C(=O)NS(=O)(=O)N(C)C)cc21 | – | – | IC50 [1, 2]: 1 to 500 nM; EC50 (HCV replicon cells; [3]): 1 to 500 nM
COc1ccc2c(c1)C1CC1(CN1C3CCC1CN(C)C3)Cn1c-2c(C2CCCCC2)c2ccc(C(=O)NS(=O)(=O)N(C)C)cc21 (stereo not drawn) | 1 to 500 nM | 1 to 500 nM | –
COc1ccc2c(c1)C1CC1(C(=O)N1C3CCC1CN(C(=O)OCc1ccccc1)C3)Cn1c-2c(C2CCCCC2)c2ccc(C(=O)NS(=O)(=O)N(C)C)cc21 (stereo not drawn) | 1 to 500 nM | 1 to 500 nM | –
COc1ccc2c(c1)C1CC1(C(=O)N1C3CCC1CN(C)C3)Cn1c-2c(C2CCCCC2)c2ccc(C(=O)NS(=O)(=O)N3CCCC3)cc21 (stereo not drawn) | 1 to 500 nM | 1 to 500 nM | –
COc1ccc2c(c1)[C@@H]1C[C@]1(C(=O)N1[C@@H]3CC[C@H]1CN(C(=O)N(C)C)C3)Cn1c-2c(C2CCCCC2)c2ccc(C(=O)NS(=O)(=O)N(C)C)cc21 | 1 to 500 nM | 1 to 500 nM | –
COc1ccc2c(c1)[C@@H]1CC1[C@@H](C(=O)N1C3CCC1CN(C)C3)n1c-2c(C2CCCCC2)c2ccc(C(=O)N(C)S(=O)(=O)N(C)C)cc21 (stereo partly drawn) | > 500 nM | > 40 nM | –
COc1ccc2c(c1)C1CC1(C(=O)N1C3CCC1CN(C)C3)Cn1c-2c(C2CCCCC2)c2ccc(C(=O)NS(=O)(=O)C3CCCCC3)cc21 (stereo not drawn) | 1 to 500 nM | 1 to 500 nM | –
CCCCS(=O)(=O)NC(=O)c1ccc2c(C3CCCCC3)c3n(c2c1)CC1(C(=O)N2C4CCC2CN(C)C4)CC1c1cc(OC)ccc1-3 (stereo not drawn) | 1 to 500 nM | 1 to 500 nM | –
CCC(C)S(=O)(=O)NC(=O)c1ccc2c(C3CCCCC3)c3n(c2c1)CC(C(=O)N1C2CCC1CN(C)C2)=Cc1cc(OC)ccc1-3 (stereo not drawn) | 1 to 500 nM | 1 to 500 nM | –
CCC(CC)S(=O)(=O)NC(=O)c1ccc2c(C3CCCCC3)c3n(c2c1)CC1(C(=O)N2C4CCC2CN(C)C4)CC1c1cc(OC)ccc1-3 (stereo not drawn) | 1 to 500 nM | > 110 nM | –
COc1ccc2c(c1)[C@@H]1CC1(C(=O)N1C3CCC1CN(C)C3)Cn1c-2c(C2CCCCC2)c2ccc(C(=O)NS(=O)(=O)C3CCC3)cc21 (stereo partly drawn) | 1 to 500 nM | – | EC50 (HCV replicon cells; [3]): 1 to 500 nM
COc1ccc2c(c1)[C@@H]1CC1(C(=O)N1C3CCC1CN(C)C3)Cn1c-2c(C2CCCCC2)c2ccc(C(=O)NS(=O)(=O)CC(C)C)cc21 (stereo partly drawn) | 1 to 500 nM | – | EC50 (HCV replicon cells; [3]): 1 to 500 nM
COc1ccc2c(c1)C1CC1(C(=O)N1C3CCC1CN(C)C3)Cn1c-2c(C2CCCCC2)c2ccc(C(=O)NS(=O)(=O)CC(F)F)cc21 (stereo not drawn) | 1 to 500 nM | 1 to 500 nM | –
COc1ccc2c(c1)C1CC1(C(=O)N1C3CCC1CN(C)C3)Cn1c-2c(C2CCCCC2)c2ccc(C(=O)NS(=O)(=O)C(F)(F)F)cc21 (stereo not drawn) | 1 to 500 nM | 1 to 500 nM | –
COc1ccc2c(c1)C1CC1(C(=O)N1C3CCC1CN(C)C3)Cn1c-2c(C2CCCCC2)c2ccc(C(=O)NS(=O)(=O)N(C)C)cc21 (stereo not drawn) [drawing 24] | – | – | IC50 [1, 2]: 1 to 500 nM; EC50 (HCV replicon cells; HCV replicon cells, FRET or luciferase activity, read-out: EC50): 1 to 500 nM
CNS(=O)(=O)NC(=O)c1ccc2c(C3CCCCC3)c3n(c2c1)CC1(C(=O)N2C4CCC2CN(C)C4)CC1c1cc(OC)ccc1-3 (stereo not drawn) [drawing 29] | 1 to 500 nM | 1 to 500 nM | –
COc1ccc2c(c1)C1CC1(C(=O)N1C3CCC1CN(C)C3)Cn1c-2c(C2CCCCC2)c2ccc(C(=O)NS(=O)(=O)N3CCC3)cc21 (stereo not drawn) [drawing 30] | – | – | IC50 ([1]; HCV NS5B RdRp genotype 1b enzyme): 1 to 500 nM; EC50 (HCV replicon cells; HCV replicon cells, FRET or luciferase activity): 1 to 500 nM
COc1ccc2c(c1)C1CC1(C(=O)N1C3CCC1CN(C)C3)Cn1c-2c(C2CCCCC2)c2ccc(C(=O)NS(=O)(=O)N3CCOCC3)cc21 (stereo not drawn) [drawing 31] | 1 to 500 nM | 1 to 500 nM | –
COc1ccc2c(c1)C1CC1(C(=O)N1C3CCC1CN(C)C3)Cn1c-2c(C2CCCCC2)c2ccc(C(=O)NS(=O)(=O)N3CCN(C)CC3)cc21 (stereo not drawn) [drawing 32] | 1 to 500 nM | 1 to 500 nM | –
